Assay results reported in ChEMBL document CHEMBL6071200, “Discovery of Ring-Annulated Analogues of Cannabidiol as Potential Anticancer Agents: Synthesis and Biological Evaluation” (ACS Med Chem Lett, 2024).
The source made the active and inactive calls. No cut-off for these calls is given here.

Experiments:
[1] = system: HCT-116; assay: Cytotoxicity against human HCT-116 cells assessed as inhibition of cell growth at 20 uM incubated for 48 hrs by SRB assay relative to control; format: functional
[2] = system: MCF7; assay: Cytotoxicity against human MCF7 cells assessed as inhibition of cell growth at 20 uM incubated for 48 hrs by SRB assay relative to control; format: functional
[3] = system: HCT-116; assay: Cytotoxicity against human HCT-116 cells assessed as inhibition of cell growth incubated for 48 hrs by SRB assay; format: functional, cell-based; settings: HCT-116, 48 h
[4] = system: MCF7; assay: Cytotoxicity against human MCF7 cells assessed as inhibition of cell growth incubated for 48 hrs by SRB assay; format: functional, cell-based; settings: MCF7, 48 h
[5] = Cytotoxicity against human HEK293 cells assessed as inhibition of cell growth incubated for 48 hrs by SRB assay; format: toxicity, cell-based
[6] = Selectivity index, ratio of IC50 for HEK293 cells to IC50 for human HCT-116 cells; format: toxicity; settings: HEK293 cells versus HCT-116 cells, read-out: Ratio IC50
[7] = Selectivity index, ratio of IC50 for HEK293 cells to IC50 for human MCF7 cells; format: toxicity; settings: HEK293 cells versus MCF7 cells, read-out: Ratio IC50
[8] = system: MCF7; assay: Induction of apoptosis in human MCF7 cells assessed as viable cells at 14.65 uM incubated for 24 hrs by Annexin V-FITC/PI staining based flow cytometric analysis (reference value: 88.20 %); format: functional; settings: read-out: Activity
[9] = system: MCF7; assay: Induction of apoptosis in human MCF7 cells assessed as early apoptotic cells at 14.65 uM incubated for 24 hrs by Annexin V-FITC/PI staining based flow cytometric analysis (reference value: 2.93 %); format: functional
[10] = system: MCF7; assay: Induction of apoptosis in human MCF7 cells assessed as late apoptotic cells at 14.65 uM incubated for 24 hrs by Annexin V-FITC/PI staining based flow cytometric analysis (reference value: 4.85 %); format: functional
[11] = system: MCF7; assay: Induction of apoptosis in human MCF7 cells assessed as necrotic cells at 14.65 uM incubated for 24 hrs by Annexin V-FITC/PI staining based flow cytometric analysis (reference value: 4.02 %); format: functional
[12] = system: MCF7; assay: Inhibition of colony formation in human MCF7 cells assessed as reduction in number of colonies at subtoxic doses measured after 48 hrs by crystal violet staining based analysis; format: functional, cell-based
[13] = system: MCF7; assay: Induction of ROS production in human MCF7 cells assessed as DCFDA intensity at 14.6 uM incubated for 24 hrs by flow cytometric analysis (reference value: 0.95 %); format: functional
[14] = system: MCF7; assay: Induction of mitochondrial membrane loss in human MCF7 cells assessed as fold change at 14.6 uM incubated for 24 hrs by Mitotracker dye based flow cytometric analysis relative to control; format: functional
[15] = system: MCF7; assay: Cell cycle arrest in human MCF7 cells assessed as accumulation of cells at G1 phase at 14.65 uM incubated for 24 hrs by PI staining based flow cytometric analysis (reference value: 63.9 %); format: functional
[16] = system: MCF7; assay: Cell cycle arrest in human MCF7 cells assessed as accumulation of cells at S phase at 14.65 uM incubated for 24 hrs by PI staining based flow cytometric analysis (reference value: 22.93 %); format: functional
[17] = system: MCF7; assay: Cell cycle arrest in human MCF7 cells assessed as accumulation of cells at G2/M phase at 14.65 uM incubated for 24 hrs by PI staining based flow cytometric analysis (reference value: 13.7 %); format: functional
[18] = system: MCF7; assay: Anticancer activity against human MCF7 cells assessed as reduction in cell viability at 14.65 uM incubated for 48 hrs by SRB assay relative to control; format: functional
[19] = system: MCF7; assay: Anticancer activity against human MCF7 cells assessed as reduction in cell viability at 14.65 uM preincubated with LY320135 for 1 hrs followed by compound addition and measured after 48 hrs by SRB assay; format: functional, cell-based
[20] = system: MCF7; assay: Anticancer activity against human MCF7 cells assessed as reduction in cell viability at 14.65 uM preincubated with SR144528 for 1 hrs followed by compound addition and measured after 48 hrs by SRB assay; format: functional, cell-based
[21] = system: MCF7; assay: Anticancer activity against human MCF7 cells assessed as reduction in cell viability at 14.65 uM preincubated with ML-193 for 1 hrs followed by compound addition and measured after 48 hrs by SRB assay; format: functional, cell-based
[22] = system: MCF7; assay: Anticancer activity against human MCF7 cells assessed as reduction in cell viability at 14.65 uM preincubated with capsazepine for 1 hrs followed by compound addition and measured after 48 hrs by SRB assay; format: functional, cell-based
[23] = system: MCF7; assay: Anticancer activity against human MCF7 cells assessed as reduction in cell viability at 14.65 uM preincubated with GW9662 for 1 hrs followed by compound addition and measured after 48 hrs by SRB assay; format: functional, cell-based
[24] = Metabolic stability in human liver microsomes assessed as parent compound remaining measured after 30 mins; format: ADME, Microsome; settings: read-out: Stability
[25] = target: CYP450 (Homo sapiens, UniProt P04798+P05177+P05181+P08684+P10632+P10635+P11509+P11712+P13584+P20813+P20815+P20853+P24462+P24903+P33260+P33261+P51589+P78329+P98187+Q02928+Q08477+Q16678+Q16696+Q5TCH4+Q6VVX0+Q7Z449+Q8TAV3+Q96SQ9+Q9HB55); assay: Inhibition of CYP450 in human liver microsomes at <1 uM by cocktail-mixture based assay relative to control; format: ADME, Microsome; parameters: dose or concentration left out as unconfirmed; settings: probe cocktail mixture
[26] = Anticancer activity against KiMol cells (unknown origin); format: functional, cell-based; settings: KiMol cell
[27] = system: AGS; assay: Anticancer activity against human AGS cells; format: functional, cell-based
[28] = system: A549; assay: Anticancer activity against human A549 cells; format: functional, cell-based
[29] = system: NCI-H460; assay: Anticancer activity against human NCI-H460 cells; format: functional, cell-based
[30] = system: EL4; assay: Anticancer activity against mouse EL4 cells; format: functional, cell-based
[31] = Anticancer activity against mouse Thymocyte; format: toxicity, cell-based; settings: thymocytes
[32] = system: C6; assay: Anticancer activity against rat C6 cells; format: functional, cell-based
[33] = system: SF-126; assay: Anticancer activity against human SF-126 cells; format: functional, cell-based
[34] = system: T98; assay: Anticancer activity against human T98 cells; format: functional, cell-based
[35] = Anticancer activity against human MZC cells; format: functional, cell-based
[36] = Anticancer activity against mouse GL261 cells; format: functional, cell-based
[37] = system: MCF7; assay: Anticancer activity against human MCF7 cells; format: functional, cell-based
[38] = system: MDA-MB-231; assay: Anticancer activity against human MDA-MB-231 cells; format: functional, cell-based
[39] = system: T47D; assay: Anticancer activity against human T47D cells; format: functional, cell-based
[40] = system: RBL-2H3; assay: Anticancer activity against rat RBL-2H3 cells; format: functional, cell-based
[41] = system: CCRF-CEM; assay: Anticancer activity against human CEM cells; format: functional, cell-based
[42] = system: HL-60; assay: Anticancer activity against human HL-60 cells; format: functional, cell-based
[43] = system: DU-145; assay: Anticancer activity against human DU-145 cells; format: functional, cell-based
[44] = system: LNCaP; assay: Anticancer activity against human LNCaP cells; format: functional, cell-based
[45] = system: SW480; assay: Anticancer activity against human SW480 cells; format: functional, cell-based
[46] = system: Caco-2; assay: Anticancer activity against human Caco-2 cells; format: functional, cell-based

Compound: C=C(C)[C@@H]1CCC(C)=C[C@H]1c1c(O)cc(CCCCC)cc1O [CANNABIDIOL]
- inhibition at 20 µM [1]: 77.3%
- inhibition at 20 µM [2]: 59.1%
- IC50 [3]: 9.8 µM
- IC50 [4]: 14.6 µM
- IC50 at 48 h [5]: 95.2 µM
- selectivity ratio [6]: 9.7
- selectivity ratio [7]: 6.5
- viability at 14.65 µM [8]: 81.1%
- Activity [9]: 6.33%
- Activity [10]: 10.14%
- Activity [11]: 2.38%
- inhibition [12]: Active
- Activity [13]: 15.11%
- fold change (FC) [14]: 3.4
- Activity [15]: 75.12%
- Activity [16]: 6.84%
- Activity [17]: 18.04%
- Activity [18]: 52.46%
- Activity [19]: Active
- Activity [20]: Active
- Activity [21]: Active
- Activity [22]: Active
- Activity [23]: Active
- remaining at 0.5 h [24]: 17%
- inhibition [25]: > 50%
- IC50 [26]: 6 µM
- IC50 [27]: 7.5 µM
- IC50 [28]: 2.8 µM
- IC50 [29]: 2.8 µM
- IC50 [30]: 7.01 µM
- IC50 [31]: 7.01 µM
- IC50 [32]: 1.2 µM
- IC50 [33]: 1.2 µM
- IC50 [34]: 1.2 µM
- IC50 [35]: 1.2 µM
- IC50 [36]: 1.2 µM
- IC50 [37]: 1.3 µM
- IC50 [38]: 1.3 µM
- IC50 [39]: 1.3 µM
- IC50 [40]: 6.3 µM
- IC50 [41]: 6.3 µM
- IC50 [42]: 6.3 µM
- IC50 [43]: 5.06 µM
- IC50 [44]: 5.06 µM
- IC50 [45]: 5.95 µM
- IC50 [46]: 5.95 µM
